Laboratory results published in patent US11230534B2, “KDM1A inhibitors for the treatment of disease” (Imago Biosciences, Inc., priority 2015, dated 2022).

Experiments:
Type in all cases: physicochemical
[1] = Chemical stability by HPLC purity re-test / degradation; settings: for Initial Purity: HPLC 1-24 hours post-synthesis
Description: Various lots of Example 1 were analyzed by HPLC shortly after synthesis (analysis from 1-24 hours post-synthesis) and re-tested for purity a unit of time later.
Purity analysis was performed on an Agilent HP1100 series system equipped with a diode array detector and using ChemStation software vB.04.03 using one of the methods detailed below: […]

[2] = Storage at elevated temperature and humidity (40° C./75% RH, 25° C./95-97% RH; XRPD, HPLC); settings: for change of form under temperature and humidity conditions: conclusion; for Storage at 40° C. and 75% RH and 25° C. and 95% RH / exposure to humidity (form, purity): scaled-up salts
Description: Example 1 was dissolved in solvent (240 mg in 2.4 mL, 10 volumes) to form stock solutions and then dispensed into vials (400 μL/˜40 mg per vial). The solutions were treated with 1 equivalent of counterions (for hydrochloric acid (HCl), sulfuric acid (H2SO4 or “SO4”), methanesulfonic acid (mesylate or “MSA”), phosphoric acid (H3PO4 or “PHOA”), and L-tartaric acid (TAR), 77 μL for 1M; for fumaric acid (FUA), 154 μL for 0.5M) using stock solutions. The solutions/suspensions were then cooled down to 0° C. at 0.2° C./min and stirred at 0° C. overnight. The resulting solids were analyzed by XRPD and those that were amorphous or poorly crystalline were then matured for 5 days. If after cooling to 0° C. a clear solution or gum was obtained, the mother liquors were removed from the vials, split in two and anti-solvent (MTBE or heptane, 400 μl) added to each of the aliquots. After anti-solvent addition, the samples were matured for 5 days. After maturation, clear solutions and gums were allowed to evaporate at ambient conditions. Suspensions were filtered, air-dried and characterized by XRPD. Any resulting crystalline solids were characterized by high resolution XRPD, 1H NMR, HPLC and one week storage at 40° C. and 75% RH.
Example 1 was dissolved in methyethyl ketone (MEK) or acetonitrile (MeCN) (20 mg in 200 μl, 10 vol) at ambient conditions. The solutions were then heated to 50° C., treated with 1.1 or 2.1 eq of acid and stirred at this temperature for 1 hour. The resulting solutions/suspensions were then cooled down to 5° C. at 0.1° C./min and held overnight. Any solids obtained were analyzed by XRPD and those that were amorphous or poorly crystalline were then matured between 50° C./ambient on an 8-hour cycle. Any clear solutions were left to evaporate slowly at ambient conditions. If the samples evaporated to form gums, these were dissolved in IPA (10 vol, 200 μL) and then matured. Any solutions with gums present were also matured between 50° C./ambient on an 8 hour cycle. Any resulting crystalline solids were characterized by high resolution XRPD, NMR, HPLC, IC (for inorganic counter-ions) and one week storage at 40° C. and 75% RH.
In the first experiment, Example 1 was dissolved in MEK or MeCN (100 mg in 1 mL, 10 vol) at ambient conditions. The solutions were then heated to 50° C., treated with 2.1 eq of p-toluene sulfonic acid monohydrate (1M in THF, 405 μL) and stirred constant temperature for 1 hour. The resulting suspensions were then cooled down to 5° C. at 0.1° C./min overnight. Any solids obtained were analyzed by XRPD and those that were amorphous or weakly crystalline were then matured between 50° C./ambient on an 8-hour cycle for 7 days. Any resulting crystalline solids were characterized by high resolution XRPD, ^1H NMR, HPLC, TGA, DSC and one week storage at 40° C. and 75% RH. […] However, after further maturation to try and improve the crystallinity, both tosylate salts were consistent with pTSA Form 2 by XRPD. […]
(§1) A preliminary polymorphism assessment was carried out on the three most crystalline salt forms, the mono tartrate (TAR Form 1), mono oxalate (OXA Form 1), and bis tosylate (pTSA Form 2). Each salt was treated with the relevant solvent (10 vol, 30 mg in 300 μL) at 25° C. The samples were stirred for 10 minutes and then heated to 50° C. for 1 hour. The resulting suspensions were matured for 24 hours and any resulting solutions were allowed to evaporate slowly. After maturation or evaporation, the solids were filtered and air-dried before analysis by XRPD.
Amorphous bis tosylate was suspended in the solvent system below (30 mg in 150 μl) at ambient conditions. The suspensions were shaken in the maturation chamber between ambient and 50° C. for 19 h (8 h cycles), then allowed to stand at ambient conditions for 10 min. An aliquot of the solid was air dried and analyzed by XRPD and then placed for 1 week at 40° C./75% RH and re-analyzed. […]

[3] = Polymorphism assessment (slurry, maturation, evaporation; XRPD); settings: 10 solvents, maturation 24 hours
Description: as §1
Amorphous bis tosylate was suspended in the solvent system below (30 mg in 150 μl) at ambient conditions. The suspensions were shaken in the maturation chamber between ambient and 50° C. for 19 h (8 h cycles), then allowed to stand at ambient conditions for 10 min. An aliquot of the solid was air dried and analyzed by XRPD and then placed for 1 week at 40° C./75% RH and re-analyzed. If solutions were recovered, the solvents were allowed to evaporate at ambient conditions and the residues were initially analyzed by XRPD.
(8 h cycles). After 4 days the solids were filtered and air dried. Solids obtained were initially analyzed by XRPD. Maturation in n-heptane, diethyl ether, ethyl acetate, isopropyl acetate, methylisobutyl ketone, 2-propanol, methylethyl ketone, acetone, tert-butylmethyl ether, cyclohexane, 1,4-dioxane, toluene, chloroform, 1,2-dimethoxyethane, tetrahydrofuran, acetonitrile, nitromethane, and 2-propanol:water 95:5 yielded filtered solids of Form 2.
Supernatants from the maturation experiments and solutions from cooling were allowed to slowly evaporate at ambient conditions. The residues were analyzed by XRPD. Slow evaporation from the following supernatants yielded: dimethyl sulfoxide, oil; water, oil; N,N-dimethylformamide, gum; N-methylpyrrolidone, oil; tetrahydrofuran:water 95:5, gum; and acetone:water 95:5 gum. Solutions obtained after the solubility assessment were placed in a fridge (4° C.) for 2 days and in a freezer (−20° C.) for another 2 days. No solids were recovered. […]

[4] = Gravimetric Vapour Sorption (GVS); settings: for hygroscopicity: conclusion; for GVS water uptake: full cycle, 25° C.
Description: Sorption isotherms were obtained using a SMS DVS Intrinsic moisture sorption analyzer, controlled by DVS Intrinsic Control software v1.0.1.2 (or v 1.0.1.3). The sample temperature was maintained at 25° C. by the instrument controls. The humidity was controlled by mixing streams of dry and wet nitrogen, with a total flow rate of 200 mL/min The relative humidity was measured by a calibrated Rotronic probe (dynamic range of 1.0-100% RH), located near the sample. The weight change, (mass relaxation) of the sample as a function of % RH was constantly monitored by the microbalance (accuracy ±0.005 mg).
Typically 5-20 mg of sample was placed in a tared mesh stainless steel basket under ambient conditions. The sample was loaded and unloaded at 40% RH and 25° C. (typical room conditions). A moisture sorption isotherm was performed as outlined below (2 scans giving 1 complete cycle). The standard isotherm was performed at 25° C. at 10% RH intervals over a 0-90% RH range. Data analysis was carried out using Microsoft Excel using DVS Analysis Suite v6.2 (or 6.1 or 6.0).

[5] = Variable temperature XRPD (VT-XRPD)
Description: Samples run under ambient conditions were prepared as flat plate specimens using powder as received without grinding. Approximately 1-2 mg of the sample was lightly pressed on a glass slide to obtain a flat surface. Samples run under non-ambient conditions were mounted on a silicon wafer with heat-conducting compound. The sample was then heated to the appropriate temperature at 20° C./min and subsequently held isothermally for 1 minute before data collection was initiated.

CN1CCN(C(=O)C(CN[C@@H]2C[C@H]2c2ccc(F)cc2)NC(=O)c2ccc(-n3ccnn3)cc2)CC1 (stereo partly drawn) [Example 1, N-[3-[[(1R,2S)-2-(4-Fluorophenyl)cyclopropyl]amino]-1-(4-methylpiperazin-1-yl)-1-oxopropan-2-yl]-4-(1H-1,2,3-triazol-1-yl)benzamide]
Re-Test Purity ([1]; Lot 1, free base, 49 days between tests): 82%
Initial Purity ([1]; Lot 1, free base): 93%
Re-Test Purity ([1]; Lot 2, free base, 16 days between tests): 72%
Initial Purity ([1]; Lot 2, free base): 81%
stability of free base form ([1]; ambient conditions): degrades at ambient conditions over time
behaviour of free base form at high humidity ([2]; high humidity): deliquesces when subjected to high humidity

O=C(O)C(O)C(O)C(=O)O (stereo not drawn) [tartrate]
change in crystalline form in polymorphism assessment [3]: five of the tartrate samples changed in form
form by XRPD post GVS [4]: decreased crystallinity and a change in form
hygroscopicity [4]: highly hygroscopic
GVS water uptake [4]: ~30 % w/w
loss in purity on storage ([2]; 40° C. and 75% RH): > 30%
change of form under temperature and humidity conditions [2]: change under both temperature and humidity conditions
Storage at 40° C. and 75% RH (form by XRPD) ([2]; one week): no change in form was observed
Storage at 40° C. and 75% RH and 25° C. and 95% RH / exposure to humidity (form, purity) [2]: changes in crystallinity and form

oxalate
change in crystalline form in polymorphism assessment [3]: only one change in form was observed
temperature up to which crystalline form is unchanged (VT-XRPD) [5]: 140 °C
form by XRPD post GVS [4]: change in form to OXA Form 2
hygroscopicity [4]: hygroscopic
GVS water uptake [4]: ~12 % w/w
change of form under temperature and humidity conditions [2]: changed form under humidity, but not temperature conditions
Storage at 40° C. and 75% RH and 25° C. and 95% RH / exposure to humidity (form, purity) [2]: changed the form of the material to OXA Form 2

tosylate
change in crystalline form in polymorphism assessment [3]: no change in crystalline form was noted in 9
temperature up to which crystalline form is unchanged (VT-XRPD) [5]: 170 °C
form by XRPD post GVS [4]: No change in form was observed
GVS water uptake [4]: ~5 % w/w
chemical stability relative to free form ([2]; limited stability studies): improved chemical stability over the free form
Storage at 40° C. and 75% RH and 25° C. and 95% RH / exposure to humidity (form, purity) [2]: no changes in the form or purity
